Measurements published in US6562861B1 (priority 1997, dated 2003).
Where a name gives a salt, the structure may show the parent alone.

Tests used:
[1] = target: neuraminidase from the H1N9 strain of influenza (Influenza A virus, UniProt P03472); assay: biochemical; details: neuraminidase enzyme inhibition data (IC50 values) Flu A
Flu B neuraminidase = Flu B neuraminidase (Influenza B virus, UniProt P03474); assay: biochemical; details: neuraminidase enzyme inhibition data (IC50 values) Flu B
Chain of Flu B neuraminidase (P03474 whole entry): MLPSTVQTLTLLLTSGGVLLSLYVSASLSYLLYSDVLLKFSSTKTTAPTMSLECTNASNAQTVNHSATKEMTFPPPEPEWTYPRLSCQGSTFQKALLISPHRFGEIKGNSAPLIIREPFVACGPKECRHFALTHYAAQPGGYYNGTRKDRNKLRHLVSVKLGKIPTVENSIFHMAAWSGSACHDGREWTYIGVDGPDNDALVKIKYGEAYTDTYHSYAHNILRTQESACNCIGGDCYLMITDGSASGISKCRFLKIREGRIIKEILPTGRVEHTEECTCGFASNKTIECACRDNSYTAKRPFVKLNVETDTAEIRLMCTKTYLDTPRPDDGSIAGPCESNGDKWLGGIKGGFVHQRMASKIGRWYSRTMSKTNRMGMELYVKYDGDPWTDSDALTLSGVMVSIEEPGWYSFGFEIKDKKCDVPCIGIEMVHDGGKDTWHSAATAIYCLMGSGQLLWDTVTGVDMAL

Chain of neuraminidase from the H1N9 strain of influenza (P03472 83-470 limits assumed): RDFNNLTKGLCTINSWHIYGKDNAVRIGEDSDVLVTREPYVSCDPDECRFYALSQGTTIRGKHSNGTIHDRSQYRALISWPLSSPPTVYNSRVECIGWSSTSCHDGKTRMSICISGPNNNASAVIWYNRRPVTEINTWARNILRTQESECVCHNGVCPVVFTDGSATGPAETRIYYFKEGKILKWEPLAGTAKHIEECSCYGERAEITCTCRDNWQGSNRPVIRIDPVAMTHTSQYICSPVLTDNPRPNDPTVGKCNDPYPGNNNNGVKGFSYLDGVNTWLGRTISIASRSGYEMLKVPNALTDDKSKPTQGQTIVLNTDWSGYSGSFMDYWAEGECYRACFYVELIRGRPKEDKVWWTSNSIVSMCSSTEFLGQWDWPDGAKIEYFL

Structure (SMILES)	IC50 [1]	IC50 (Flu B neuraminidase)
CCC(CC)C(NC(C)=O)C1CC(C(=O)O)CC1O (single isomer, unassigned) [Compound 65, (±) t-3-(1′-Acetylamino-2′-ethyl)butyl-t-4-hydroxycyclopentan-r-1-carboxylic Acid]	1000 to 100000 nM	1000 to 100000 nM
CCC(CC)C(NC(C)=O)C1CC(C(=O)O)CC1N (single isomer, unassigned) [Compound 86, (±) t-3-[(1′-Acetylamino-2′-ethyl)butyl]-c-4-aminocyclopentan-r-1-carboxylic Acid]	1000 to 100000 nM	1000 to 100000 nM
CCC(CC)C(NC(C)=O)C1C(N)CC(C(=O)O)C1O (single isomer, unassigned) [Compound 162, (±)-t-3-(1′-Acetylamino-2′-ethyl)butyl-c-4-amino-t-2-hydroxycyclopentan-r-1-carboxylic Acid]	< 1000 nM	< 1000 nM
CCCC(CCC)C(NC(C)=O)C1C(N)CC(C(=O)O)C1O (single isomer, unassigned) [Compound 163, (±)-t-3-(1′-Acetylamino-2′-propyl)pentyl-c-4-amino-t-2-hydroxycyclopentan-r-1-carboxylic Acid]	< 1000 nM	< 1000 nM
CCCCC(NC(C)=O)C1C(N)CC(C(=O)O)C1O (single isomer, unassigned) [Compound 165]	1000 to 100000 nM	1000 to 100000 nM
CCC(C)C(NC(C)=O)C1C(N)CC(C(=O)O)C1O (single isomer, unassigned) [Compound 166, (±)-t-3-(1′-Acetylamino-2′-methyl)butyl-c-4-amino-t-2-hydroxycyclopentan-r-1-carboxylic Acid]	< 1000 nM	1000 to 100000 nM
CCC(CC)C(NC(C)=O)C1C(NC(=N)N)CC(C(=O)O)C1O (single isomer, unassigned) [Compound 179, (±)-t-3-(1′-Acetylamino-2′-ethyl)butyl-c-4-[(amino-imino)methyl]amino-t-2-hydroxycyclopentan-r-1-carboxylic Acid]	< 1000 nM	–
CCC(CC)CC(NC(C)=O)C1C(NC(=N)N)CC(C(=O)O)C1O (single isomer, unassigned) [Compound 180, (±)-t-3-(1′-Acetylamino-3′-ethyl)pentyl-c-4-[(amino-imino)methyl]amino-t-2-hydroxycyclopentan-r-1-carboxylic Acid]	< 1000 nM	< 1000 nM
CCCCC(NC(C)=O)C1C(NC(=N)N)CC(C(=O)O)C1O (single isomer, unassigned) [Compound 181]	< 1000 nM	< 1000 nM
CCC(CC)C(NC(C)=O)C1CC(C(=O)O)CC1N (single isomer, unassigned) [Compound 200, (±)-t-3-(1′-Acetylamino-2′-ethyl)butyl-c-4-aminocyclopentan-1-carboxylic Acid]	< 1000 nM	< 1000 nM
CCC(CC)C(NC(C)=O)C1CC(C(=O)O)CC1NC(=N)N (single isomer, unassigned) [Compound 211, (±)-t-3-(1′-Acetylamino-2′-ethyl)butyl-c-4-[(amino-imino)methyl]-aminocyclopentan-r-1-carboxylic Acid]	< 1000 nM	–
CCC(CC)C(NC(C)=O)[C@@H]1[C@H](O)[C@@H](C(=O)O)C[C@H]1N (stereo partly drawn) [Compound 160, (1S,2S,3R,4R,1′S)-(−)-3-(1′-Acetylamino-2′-ethyl)butyl-4-amino-2-hydroxycyclopentan-1-carboxylic Acid]	< 1000 nM	< 1000 nM
CCC(CC)C(NC(C)=O)[C@@H]1[C@H](O)[C@@H](C(=O)O)C[C@H]1NC(=N)N (stereo partly drawn) [Compound 178, (1S,2S,3R,4R,1′S)-(−)-3-(1′-Acetylamino-2′-ethyl)butyl-4-[(aminoimino)methyl]amino-2-hydroxycyclopentan-1-carboxylic Acid]	< 1000 nM	–
CCC(CC)C(NC(C)=O)[C@@H]1[C@H](O)[C@@H](C(=O)O)C[C@H]1NC(=N)NC (stereo partly drawn) [Compound 182, (1S,2S,3R,4R,1′S)-(−)-3-(1′-Acetylamino-2′-ethyl)butyl-4-[(N-methylamino-imino)methyl]amino-2-hydroxycyclopentan-1-carboxylic Acid]	< 1000 nM	< 1000 nM
CCCC(CCC)C(NC(C)=O)[C@@H]1[C@H](O)[C@@H](C(=O)O)C[C@H]1NC(=N)N (stereo partly drawn) [Compound 183, (1S,2S,3R,4R,1′S)-(−)-3-(1′-Acetylamino-2′-propyl)pentyl-4-[(amino-imino)methyl]amino-2-hydroxycyclopentan-1-carboxylic Acid]	< 1000 nM	< 1000 nM
CCC(CC)C(NC(C)=O)[C@@H]1C[C@@H](C(=O)O)C[C@H]1N (stereo partly drawn) [Compound 199, (1R,3R,4R,1′S)-(−)-3-(1′-Acetylamino-2′-ethyl)butyl-4-aminocyclopentan-1-carboxylic Acid]	< 1000 nM	< 1000 nM
CCC(CC)C(NC(C)=O)[C@@H]1C[C@@H](C(=O)O)C[C@H]1NC(=N)N (stereo partly drawn) [Compound 209, (1R,3R,4R,1′S)-(−)-3-(1′-Acetylamino-2′-ethyl)butyl-4-(aminoimino)methyl-aminocyclopentan-1-carboxylic Acid]	< 1000 nM	–
CCCC(CCC)C(NC(C)=O)[C@@H]1C[C@@H](C(=O)O)C[C@H]1NC(=N)N (stereo partly drawn) [Compound 210, (1R,3R,4R,1′S)-(−)-3-(1′-Acetylamino-2′-propyl)pentyl-4-[(amino-imino)methyl]aminocyclopentan-1-carboxylic Acid]	< 1000 nM	< 1000 nM
CCC(CC)C(NC(C)=O)[C@@H]1C[C@@H](C(=O)O)C[C@H]1NC(=N)NC (stereo partly drawn) [Compound 212, (1R,3R,4R,1′S)-(−)-3-(1′-Acetylamino-2′-ethyl)butyl-4-[(N-methylamino-imino)methyl]aminoclopentan-1-carboxylic Acid]	< 1000 nM	< 1000 nM
CCC(CC)C(NC(C)=O)[C@@H]1C=C(C(=O)O)C[C@H]1NC(=N)N (stereo partly drawn) [Compound 219, (3R,4R,1′S)-(−)-3-(1′-Acetylamino-2′-ethyl)butyl-4-[(amino-imino)methyl]amino-cyclopent-1-en-1-carboxylic Acid Hydrochloride]	< 1000 nM	< 1000 nM
